Each molecule was assayed against C-Raf FL (full length CRAF with Y340E and Y341E activating mutations, co-expressed with h14-3-3 zeta) (Homo sapiens (Human), UniProt P04049, Y340E/Y341E) (assay: In vitro Raf activity determination, AlphaScreen p-MEK readout, c-Raf (C-Raf FL)). Conditions: c-Raf approximately 4 nM, ATP 1 μM, pre-incubation 60 minutes, reaction 1 hour.
C-Raf FL (full length CRAF with Y340E and Y341E activating mutations, co-expressed with h14-3-3 zeta), sequence (P04049 whole entry Y340E/Y341E): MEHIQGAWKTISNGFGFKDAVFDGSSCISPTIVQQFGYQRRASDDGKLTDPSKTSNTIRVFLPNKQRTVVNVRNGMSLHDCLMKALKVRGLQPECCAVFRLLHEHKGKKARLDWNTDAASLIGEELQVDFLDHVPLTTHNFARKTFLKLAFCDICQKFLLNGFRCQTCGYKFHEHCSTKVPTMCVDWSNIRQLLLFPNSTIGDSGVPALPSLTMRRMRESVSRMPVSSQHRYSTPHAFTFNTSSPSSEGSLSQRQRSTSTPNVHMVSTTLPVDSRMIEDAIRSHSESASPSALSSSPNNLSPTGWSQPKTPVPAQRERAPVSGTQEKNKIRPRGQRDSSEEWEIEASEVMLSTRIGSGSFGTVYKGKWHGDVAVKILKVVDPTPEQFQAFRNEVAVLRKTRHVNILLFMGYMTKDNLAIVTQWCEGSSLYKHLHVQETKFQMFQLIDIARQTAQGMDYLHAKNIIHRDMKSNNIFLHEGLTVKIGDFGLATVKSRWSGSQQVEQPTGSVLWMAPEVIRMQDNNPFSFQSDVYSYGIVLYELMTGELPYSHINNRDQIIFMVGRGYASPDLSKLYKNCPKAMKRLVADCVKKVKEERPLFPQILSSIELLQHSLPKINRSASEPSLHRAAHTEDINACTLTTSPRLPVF
C-Raf FL (full length CRAF with Y340E and Y341E activating mutations, co-expressed with h14-3-3 zeta), sequence (P63104 whole entry partner): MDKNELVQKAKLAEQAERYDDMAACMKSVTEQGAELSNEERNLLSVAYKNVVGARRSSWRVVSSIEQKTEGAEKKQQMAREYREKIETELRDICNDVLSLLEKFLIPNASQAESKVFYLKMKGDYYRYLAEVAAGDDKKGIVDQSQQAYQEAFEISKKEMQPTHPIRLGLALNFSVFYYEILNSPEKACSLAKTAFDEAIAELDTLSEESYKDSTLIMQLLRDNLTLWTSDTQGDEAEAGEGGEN
Assay type: biochemical
Method in brief: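 Full-length C-Raf (~4 nM) pre-incubated 60 min at room temperature with compound and kinase-dead biotinylated MEK1 (~10 nM) in Tris pH 7.5, 15 mM MgCl2, BSA, DTT. Reaction started with 1 μM ATP and run 1 h at room temperature. Phospho-MEK detected by AlphaScreen with anti-p-MEK antibody.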
For `Cc1ccc(NC(=O)c2ccnc(C(F)(F)F)c2)cc1-c1cnc2c(c1)N1CCOC[C@@H]1[C@H](CO)C2` [Example 494, N-(3-((4aS,5R)-5-(hydroxymethyl)-1,2,4,4a,5,6-hexahydro-[1,4]oxazino[4,3-a][1,5]naphthyridin-9-yl)-4-methyphenyl)-2-(trifluoromethyl)iso-nicotinamide], the IC50 was 100 pM.
Work on `Cc1ccc(NC(=O)c2ccnc(C(C)(F)F)c2)cc1-c1cnc2c(c1)N1CCOC[C@@H]1[C@H](CO)C2` [Example 495, 2-(1,1-difluoroethyl)-N-(3-((4aS,5R)-5-(hydroxymethyl)-1,2,4,4a,5,6-hexahydro-[1,4]oxazino[4,3-a][1,5]naphthyridin-9-yl)-4-methylphenyl)iso-nicotinamide] yielded an IC50 of 100 pM.
`CCN1C[C@H]2COCCN2c2cc(-c3cc(NC(=O)c4ccnc(C(F)(F)F)c4)ccc3C)cnc2C1=O` [Example 496, (S)-N-(3-(6-ethyl-7-oxo-1,2,4a,5,6,7-hexahydro-4H-[1,4]oxazino[4,3-a]pyrido[2,3-f][1,4]diazepin-10-yl)-4-methylphenyl)-2-(trifluoromethyl)iso-nicotinamide] gave an IC50 of 700 pM.
`CCN1C[C@H]2COCCN2c2cc(-c3cc(NC(=O)c4cccc(C(F)(F)F)c4)cnc3C)cnc2C1=O` [Example 497, (S)-N-(5-(6-ethyl-7-oxo-1,2,4a,5,6,7-hexahydro-4H-[1,4]oxazino[4,3-a]pyrido[2,3-f][1,4]diazepin-10-yl)-6-methylpyridin-3-yl)-3-(trifluoromethyl) benzamide] gave an IC50 of 1400 pM.
With `CCN1C[C@H]2COCCN2c2cc(-c3cc(NC(=O)c4ccnc(C(C)(F)F)c4)ccc3C)cnc2C1=O` [Example 498, (S)-2-(1,1-difluoroethyl)-N-(3-(6-ethyl-7-oxo-1,2,4a,5,6,7-hexahydro-4H-[1,4]oxazino[4,3-a]pyrido[2,3-f][1,4]diazepin-10-yl)-4-methylphenyl)iso-nicotinamide] the IC50 was 600 pM.
Work on `CCN1C[C@H]2COCCN2c2cc(-c3cc(NC(=O)c4ccnc(C(F)(F)F)c4F)ccc3C)cnc2C1=O` [Example 499, (S)-N-(3-(6-ethyl-7-oxo-1,2,4a,5,6,7-hexahydro-4H-[1,4]oxazino[4,3-a]pyrido[2,3-f][1,4]diazepin-10-yl)-4-methyplhenyl)-3-fluoro-2-(trifluoromethyl)iso-nicotinamide] yielded an IC50 of 400 pM.
Molecule `CCN1C[C@@H]2COCCN2c2cc(-c3cc(NC(=O)c4ccnc(C(F)(F)F)c4)ccc3C)cnc2C1=O` [Example 500, (R)-N-(3-(6-ethyl-7-oxo-1,2,4a,5,6,7-hexahydro-4H-[1,4]oxazino[4,3-a]pyrido[2,3-f][1,4]diazepin-10-yl)-4-methylphenyl)-2-(trifluoromethyl)iso-nicotinamide] has an IC50 of 100 pM.
`CCN1C[C@@H]2COCCN2c2cc(-c3cc(NC(=O)c4cccc(C(F)(F)F)c4)cnc3C)cnc2C1=O` [Example 501, (R)-N-(5-(6-ethyl-7-oxo-1,2,4a,5,6,7-hexahydro-4H-[1,4]oxazino[4,3-a]pyrido[2,3-f][1,4]diazepin-10-yl)-6-methypyridin-3-yl)-3-(trifluoro-methyl)benzamide] gave an IC50 of 200 pM.
Molecule `CCN1C[C@@H]2COCCN2c2cc(-c3cc(NC(=O)c4ccnc(C(C)(F)F)c4)ccc3C)cnc2C1=O` [Example 502, (R)-2-(1,1-difluoroethyl)-N-(3-(6-ethyl-7-oxo-1,2,4a,5,6,7-hexahydro-4H-[1,4]oxazino[4,3-a]pyrido[2,3-f][1,4]diazepin-10-yl)-4-methylphenyl)iso-nicotinamide] has an IC50 of 200 pM.
Molecule `CCN1C[C@@H]2COCCN2c2cc(-c3cc(NC(=O)c4ccnc(C(F)(F)F)c4F)ccc3C)cnc2C1=O` [Example 503] has an IC50 of 100 pM.
`CCN1C[C@@H]2CCOCCN2c2cc(-c3cc(NC(=O)c4ccnc(C(F)(F)F)c4)ccc3C)cnc2C1=O` [Example 504, (S)-N-(3-(7-ethyl-8-oxo-1,2,4,5,5a,6,7,8-octahydropyrido[2′, 3′:6,7][1,4]diazepino [1,2-d][1,4]oxazepin-11-yl)-4-methylphenyl)-2-(trifluoromethyl)iso-nicotinamide] gave an IC50 of 15400 pM.
Molecule `CCN1C[C@H]2CCOCCN2c2cc(-c3cc(NC(=O)c4ccnc(C(F)(F)F)c4)ccc3C)cnc2C1=O` [Example 505, (R)-N-(3-(7-ethyl-8-oxo-1,2,4,5,5a,6,7,8-octahydropyrido[2′, 3′:6,7][1,4]diazepino [1,2-d][1,4]oxazepin-11-yl)-4-methylphenyl)-2-(trifluoromethyl)iso-nicotinamide] has an IC50 of 3600 pM.
`CCN1C[C@@H]2CCOCCN2c2cc(-c3cc(NC(=O)c4cccc(C(F)(F)F)c4)cnc3C)cnc2C1=O` [Example 506, (S)-N-(5-(7-ethyl-8-oxo-1,2,4,5,5a,6,7,8-octahydropyrido[2′, 3′:6,7][1,4]diazepino [1,2-d][1,4]oxazepin-11-yl)-6-methylpyridin-3-yl)-3-(trifluorometh-yl)benzamide] was tested, and the IC50 was 80300 pM.
`CCN1C[C@H]2CCOCCN2c2cc(-c3cc(NC(=O)c4cccc(C(F)(F)F)c4)cnc3C)cnc2C1=O` [Example 507, (R)-N-(5-(7-ethyl-8-oxo-1,2,4,5,5a,6,7,8-octahydropyrido[2′, 3′:6,7][1,4]diazepino [1,2-d][1,4]oxazepin-11-yl)-6-methylpyridin-3-yl)-3-(trifluorometh-yl)benzamide] was tested, and the IC50 was 26900 pM.
For `Cc1ccc(NC(=O)c2ccnc(C(F)(F)F)c2)cc1-c1cnc2c(c1)N1CCOC[C@H]1C[C@H]2OCCO` [Example 508, N-(3-((4aR,6R)-6-(2-hydroxyethoxy)-1,2,4,4a,5,6-hexahydro-[1,4]oxazino[4,3-a][1,5]naphthyridin-9-yl)-4-methylphenyl)-2-(trifluoromethyl)iso-nicotinamide], the IC50 was 200 pM.
With `Cc1ccc(NC(=O)c2ccnc(C(F)(F)F)c2)cc1-c1cnc2c(c1)N1CCOC[C@@H]1C[C@@H]2OCCO` [Example 509, N-(3-((4aS,6S)-6-(2-hydroxyethoxy)-1,2,4,4a,5,6-hexahydro-[1,4]oxazino[4,3-a][1,5]naphthyridin-9-yl)-4-methylphenyl)-2-(trifluorometh-yl)isonicotinamide] the IC50 was 200 pM.
Molecule `Cc1ccc(NC(=O)c2ccnc(C(F)(F)F)c2F)cc1-c1cnc2c(c1)N1CCOC[C@H]1C[C@H]2OCCO` [Example 510, 3-fluoro-N-(3-((4aR,6R)-6-(2-hydroxyethoxy)-1,2,4,4a,5,6-hexahydro-[1,4]oxazino[4,3-a][1,5]naphthyridin-9-yl)-4-methylphenyl)-2-(trifluoromethyl)iso-nicotinamide] has an IC50 of 100 pM.
`Cc1ccc(NC(=O)c2ccnc(C(C)(C)F)c2)cc1-c1cnc2c(c1)N1CCOC[C@H]1C[C@H]2OCCO` [Example 511, 2-(2-fluoropropan-2-yl)-N-(3-((4aR,6R)-6-(2-hydroxyethoxy)-1,2,4,4a,5,6-hexahydro-[1,4]oxazino[4,3-a][1,5]naphthyridin-9-yl)-4-methylphenyl)iso-nicotinamide] gave an IC50 of 200 pM.
`Cc1ccc(NC(=O)c2cnnc(C(F)(F)F)c2)cc1-c1cnc2c(c1)N1CCOC[C@H]1C[C@H]2OCCO` [Example 512, N-(3-((4aR,6R)-6-(2-hydroxyethoxy)-1,2,4,4a,5,6-hexahydro-[1,4]oxazino[4,3-a][1,5]naphthyridin-9-yl)-4-methylphenyl)-6-(trifluorometh-yl)pyridazine-4-carboxamide] showed an IC50 of 400 pM.
`Cc1ccc(NC(=O)c2ccnc(C(C)(F)F)c2)cc1-c1cnc2c(c1)N1CCOC[C@H]1C[C@H]2OCCO` [Example 513, 2-(1,1-difluoroethyl)-N-(3-((4aR,6R)-6-(2-hydroxyethoxy)-1,2,4,4a,5,6-hexahydro-[1,4]oxazino[4,3-a][1,5]naphthyridin-9-yl)-4-methylphenyl)iso-nicotinamide] showed an IC50 of 100 pM.
With `Cc1ncc(NC(=O)c2cccc(C(F)(F)F)c2)cc1-c1cnc2c(c1)N1CCOC[C@H]1C[C@H]2OCCO` [Example 514, N-(5-((4aR,6R)-6-(2-hydroxyethoxy)-1,2,4,4a,5,6-hexahydro-[1,4]oxazino[4,3-a][1,5]naphthyridin-9-yl)-6-methylpyridin-3-yl)-3-(trifluorometh-yl)benzamide] the IC50 was 400 pM.
Molecule `Cc1ccc(NC(=O)c2ccnc(C(C)(F)F)c2)cc1-c1cnc2c(c1)N1CCOC[C@H]1[C@@](C#N)(CF)C2` [Example 515, N-(3-((4aR,5S)-5-cyano-5-(fluoromethyl)-1,2,4,4a,5,6-hexahydro-[1,4]oxazino[4,3-a][1,5]naphthyridin-9-yl)-4-methylphenyl)-2-(1,1-difluoroethyl)iso-nicotinamide] has an IC50 of 100 pM.
With `Cc1ccc(NC(=O)c2ccnc(C(C)(F)F)c2)cc1-c1cnc2c(c1)N1CCOC[C@@H]1[C@](C#N)(CF)C2` [Example 516, N-(3-((4aS,5R)-5-cyano-5-(fluoromethyl)-1,2,4,4a,5,6-hexahydro-[1,4]oxazino[4,3-a][1,5]naphthyridin-9-yl)-4-methylphenyl)-2-(1,1-difluoroethyl)iso-nicotinamide] the IC50 was 100 pM.
`Cc1ccc(NC(=O)c2ccnc(C(C)(F)F)c2)cc1-c1cnc2c(c1)N1CCOC[C@@H]1[C@@](C#N)(CF)C2` [Example 517, N-(3-((4aS,5S)-5-cyano-5-(fluoromethyl)-1,2,4,4a,5,6-hexahydro-[1,4]oxazino[4,3-a][1,5]naphthyridin-9-yl)-4-methyphenyl)-2-(1,1-difluoroethyl)iso-nicotinamide] gave an IC50 of 100 pM.
With `Cc1ccc(NC(=O)c2ccnc(C(C)(F)F)c2)cc1-c1cnc2c(c1)N1CCOC[C@H]1[C@](C#N)(CF)C2` [Example 518, N-(3-((4aR,5R)-5-cyano-5-(fluoromethyl)-1,2,4,4a,5,6-hexahydro-[1,4]oxazino[4,3-a][1,5]naphthyridin-9-yl)-4-methyphenyl)-2-(1,1-difluoroethyl)iso-nicotinamide] the IC50 was 100 pM.
`Cc1ccc(NC(=O)c2ccnc(C(F)(F)F)c2)cc1-c1cnc2c(c1)N1CCOC[C@H]1[C@@](C#N)(CF)C2` [Example 520] gave an IC50 of 100 pM.

— patent publication US10377770B2 (Novartis AG, priority 2015, dated 2019)
